Source: patent US10682320B2, “Method for inhibiting osteoclast development” (West Virginia University, priority 2012, dated 2020)

Columns and labels:
[1] = biological target: T1, CRAC channel (Orai I / STIM I) (Homo sapiens, UniProt Q13586); experiment: Whole cell CRAC current (Icrac) in HEK293 cells expressing Orai I and YFP-STIM I; type: cell-based; conditions: whole cell clamp
T1 construct: expressed in transfected cells; host or cells: HEK293
Protocol: Analysis was performed in HEK293 cells stably expressing Orai I and transfected with STIM I YFP used conventional whole cell voltage recordings as described (see, Wang Y, Deng X, Zhou Y, Hendron E, Mancarelia S, Ritchie M F. Tang X D, Baba Y, Kurosaki T, Mori Y, Soboloff J, Gill D L., “STIM protein coupling in the activation of Orai channels”, Proc Natl Acad Sci USA Vol. 106, pages 7391-7396, 2009). Immediately after establishment of the whole-cell electrode seal, voltage ramps spanning from—100 to +100 mV in 50 msec were delivered from a holding potential of 0 mV at a rate of 0.5 Hz. A 10 mV junction potential compensation was applied. […]
The haloanilide DCPA blocks store-operated Ca^2+ channel function in Jurkat cells with no effect on ER Ca^2+ content. […] To address this, the present inventor examined HEK293 cells stably expressing Orai I and transiently transfected with YFP-STIMI and measured the effect of DCPA on CRAC current or Icrac. CRAC channel activity was measured in the whole cell clamp position after passively depleting Ca^2+ stores via the presence of 10 mM EGTA in the patch pipette. […]

[2] = biological target: T2, STIM I (Homo sapiens, UniProt Q13586); experiment: STIM I puncta formation in HEK293 cells transfected with YFP-STIM I; type: cell-based; conditions: 2 μM thapsigargin, 16 minute period
T2 construct: expressed in transfected cells; host or cells: HEK293
Protocol: HEK293 cells, maintained in DMEM with 10% FBS, were transfected with YFP-STIM I using Lipofectamine 2000 (Invitrogen, Carlsbad, Calif.) for 5 h (37° C.; 5% CO2) followed by a 24-h recovery. Cells were placed in 140 mM NaCl, 5 mM KCl, 1 mM MgCl2, 10 mM glucose, 15 mM HEPES, 0.1% BSA, 2 mM CaCl2 and analyzed by confocal microscopy for STIM I puncta formation using a Nikon phase-fluorescence microscope with CCD detectors (Diagnostic instruments, Sterling Heights, Mich.). Phase or transmitted light microscopy used 10-40× objectives and red, green, and blue filters to assemble color images. Fluorescence images used 1.4 NA 40× oil objectives. Red fluorescence used excitation at 530-560 nm, a 575 nm dichroic minor, and 580-650 nm emission filter. Transfection data were analyzed using Nikon NIS Elements Imaging Software. The effect of DCPA on STIM I/Orai I association was determined in wild-type HEK293 cells transfected with STIM I-YFP as described in Wang Y, Deng X, Zhou Y, Hendron E, Mancarelia S, Ritchie M F, Tang X D, Baba Y, Kurosaki T, Mori Y, Soboloff J, Gill DL, “STIM protein coupling in the activation of Orai channels”, Proc Natl Acad Sci USA, Vol. 106, pages 7391-7396, 2009. Experiments were performed on a Leica DMI 6000B fluorescence microscope controlled by Slidebook Software (Intelligent Imaging Innovations, Denver, Colo.). […]

T1 sequence (Q13586 23-685): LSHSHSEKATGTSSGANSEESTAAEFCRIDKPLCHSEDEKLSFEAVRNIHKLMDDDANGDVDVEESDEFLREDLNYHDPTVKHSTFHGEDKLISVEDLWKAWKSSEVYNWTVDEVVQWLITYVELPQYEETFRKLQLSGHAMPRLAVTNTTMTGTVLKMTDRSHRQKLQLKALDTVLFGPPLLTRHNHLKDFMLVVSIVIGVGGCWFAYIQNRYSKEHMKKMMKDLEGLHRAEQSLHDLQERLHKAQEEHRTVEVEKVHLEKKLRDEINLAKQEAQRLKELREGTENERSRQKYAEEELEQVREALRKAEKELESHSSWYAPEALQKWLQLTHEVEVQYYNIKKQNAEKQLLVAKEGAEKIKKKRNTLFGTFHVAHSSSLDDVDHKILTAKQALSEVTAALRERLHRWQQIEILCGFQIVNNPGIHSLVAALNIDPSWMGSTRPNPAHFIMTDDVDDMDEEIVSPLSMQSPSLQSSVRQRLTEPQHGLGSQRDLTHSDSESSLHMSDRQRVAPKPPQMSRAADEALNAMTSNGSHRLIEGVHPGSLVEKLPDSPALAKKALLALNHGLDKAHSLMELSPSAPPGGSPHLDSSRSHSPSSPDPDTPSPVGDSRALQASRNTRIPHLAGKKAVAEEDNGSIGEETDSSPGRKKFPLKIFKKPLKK
T2 sequence (Q13586 23-685): as above

CCC(=O)Nc1ccc(Cl)c(Cl)c1 [DCPA, N-(3,4-dichlorophenyl)propanamide]
current-voltage relationship versus control cells [1]: did not show significant differences | time for CRAC current to return to baseline after break-in ([1]; 10 mM EGTA in pipette): less than 4 minutes | STIM I puncta formation after store depletion [2]: dramatically inhibited
